How the values were obtained:
382 unique human kinases [1] = target: T1, 382 unique human kinases (Homo sapiens, UniProt P29320); assay: biochemical; assay type: biochemical; conditions: EPHA3, 10 uM; for remaining activity at 10 µM: read-out: % Enzyme Activity (relative to DMSO controls)
T1 construct: purchased Reaction Biology (HotSpot contract assay)
T1 sequence (P29320 21-983): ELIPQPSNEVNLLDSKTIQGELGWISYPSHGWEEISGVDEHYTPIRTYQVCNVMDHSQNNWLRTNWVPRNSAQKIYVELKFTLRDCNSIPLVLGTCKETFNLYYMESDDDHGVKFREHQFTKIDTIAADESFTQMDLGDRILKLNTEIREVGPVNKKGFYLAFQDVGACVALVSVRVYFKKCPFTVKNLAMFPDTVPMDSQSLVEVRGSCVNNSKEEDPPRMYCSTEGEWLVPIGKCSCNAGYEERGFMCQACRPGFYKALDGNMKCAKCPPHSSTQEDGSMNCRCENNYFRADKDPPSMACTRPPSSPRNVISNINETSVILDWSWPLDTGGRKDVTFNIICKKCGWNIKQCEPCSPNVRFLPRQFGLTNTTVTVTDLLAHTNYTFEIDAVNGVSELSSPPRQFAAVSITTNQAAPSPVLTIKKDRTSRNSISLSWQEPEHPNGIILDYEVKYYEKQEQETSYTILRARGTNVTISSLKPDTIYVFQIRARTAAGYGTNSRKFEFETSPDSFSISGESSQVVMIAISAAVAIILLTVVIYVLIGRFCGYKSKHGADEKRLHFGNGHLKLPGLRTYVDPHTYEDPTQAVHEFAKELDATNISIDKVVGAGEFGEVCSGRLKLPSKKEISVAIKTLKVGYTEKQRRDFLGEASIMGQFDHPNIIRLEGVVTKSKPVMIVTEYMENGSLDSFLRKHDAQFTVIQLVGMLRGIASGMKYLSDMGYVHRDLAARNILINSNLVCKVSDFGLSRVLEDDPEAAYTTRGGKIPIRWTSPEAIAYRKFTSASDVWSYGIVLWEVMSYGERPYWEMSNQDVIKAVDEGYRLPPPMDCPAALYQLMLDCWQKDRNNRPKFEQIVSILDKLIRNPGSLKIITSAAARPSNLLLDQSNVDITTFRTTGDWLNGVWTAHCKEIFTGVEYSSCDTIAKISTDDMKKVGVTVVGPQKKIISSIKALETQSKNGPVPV

382 unique human kinases [2] = target: T2, 382 unique human kinases (Homo sapiens, UniProt Q15759); assay: biochemical; assay type: biochemical; conditions: kinase P38b/MAPK11, compound 10 uM; for remaining activity at 10 µM: read-out: % Enzyme Activity (relative to DMSO controls)
T2 construct: purchased Reaction Biology (HotSpot contract assay)

382 unique human kinases [3] = target: T3, 382 unique human kinases (Homo sapiens, UniProt P10721, K642E); assay: biochemical; assay type: biochemical; conditions: kinase c-Kit (K642E), compound 10 uM; for remaining activity at 10 µM: read-out: % Enzyme Activity (relative to DMSO controls)
T3 construct: purchased Reaction Biology (HotSpot contract assay)

382 unique human kinases [4] = target: T4, 382 unique human kinases (Homo sapiens, UniProt O94804); assay: biochemical; assay type: biochemical; conditions: LOK/STK10, 10 uM; for remaining activity at 10 µM: read-out: % Enzyme Activity (relative to DMSO controls)
T4 construct: purchased Reaction Biology (HotSpot contract assay)

382 unique human kinases [5] = target: T5, 382 unique human kinases (Homo sapiens, UniProt Q9UM73, C1156Y); assay: biochemical; assay type: biochemical; conditions: ALK (C1156Y), [ATP] 5 µM, compound 10 uM; for remaining activity at 10 µM: read-out: % Enzyme Activity (relative to DMSO controls)
T5 construct: purchased Reaction Biology (HotSpot contract assay)

382 unique human kinases [6] = target: T6, 382 unique human kinases (Homo sapiens, UniProt P51957); assay: biochemical; assay type: biochemical; conditions: NEK4, 10 uM; for remaining activity at 10 µM: read-out: % Enzyme Activity (relative to DMSO controls)
T6 construct: purchased Reaction Biology (HotSpot contract assay)

382 unique human kinases [7] = target: T7, 382 unique human kinases (Homo sapiens, UniProt P06241); assay: biochemical; assay type: biochemical; conditions: FYN, [ATP] 30 µM
T7 construct: purchased Reaction Biology (HotSpot contract assay)

FYN = target: T8, FYN (Homo sapiens, UniProt P06241); assay: HotSpot in vitro kinase radiometric assay; assay type: biochemical; conditions: for inhibition at 10 µM: read-out: % inhibition at 10 uM: FYN, Fig 6C median ± standard deviation (n = 2)
T8 construct: purchased Reaction Biology (HotSpot contract assay)

PEAK1 = target: T9, PEAK1 (Homo sapiens, UniProt Q9H792); assay: HotSpot in vitro kinase radiometric assay; assay type: biochemical; conditions: for inhibition at 10 µM: read-out: % inhibition at 10 uM: PEAK1, 10 μM
T9 construct: purchased Reaction Biology (HotSpot contract assay)

LCK = target: T10, LCK (Homo sapiens, UniProt P06239); assay: HotSpot in vitro kinase radiometric assay; assay type: biochemical; conditions: for inhibition at 10 µM: read-out: % inhibition at 10 uM: LCK, Fig 6C median ± standard deviation (n = 2)
T10 construct: purchased Reaction Biology (HotSpot contract assay)

YES/YES1 = target: T11, YES/YES1 (Homo sapiens, UniProt P07947); assay: HotSpot in vitro kinase radiometric assay; assay type: biochemical; conditions: for inhibition at 10 µM: read-out: % inhibition at 10 uM: YES, Fig 6C median ± standard deviation (n = 2)
T11 construct: purchased Reaction Biology (HotSpot contract assay)

TRKA = target: T12, TRKA (Homo sapiens, UniProt P04629); assay: HotSpot in vitro kinase radiometric assay; assay type: biochemical; conditions: for inhibition at 10 µM: read-out: % inhibition at 10 uM: TRKA, Fig 6C median ± standard deviation (n = 2)
T12 construct: purchased Reaction Biology (HotSpot contract assay)
How it was run: (§1)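 Product formation was detected via radiolabelled phosphate transferred from ɣ-ATP (32P or 33P) and captured on filter paper after spotting. The kinase reactions included substrate, cofactors and compound, with no antibodies or coupling enzymes involved.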

PASK = target: T13, PASK (Homo sapiens, UniProt Q96RG2); assay: HotSpot in vitro kinase radiometric assay; assay type: biochemical; conditions: for inhibition at 10 µM: read-out: % inhibition at 10 uM: PASK, Fig 6C median ± standard deviation (n = 2)
T13 construct: purchased Reaction Biology (HotSpot contract assay)
How it was run: as §1

HSP90AA1 = conditions: cited from earlier work; for pActivity, HSP90AA1: average of reported values, ref ChEMBL23 (accessed: 23/08/2018)
TRKC = target: T14, TRKC (Homo sapiens, UniProt Q16288); assay: HotSpot in vitro kinase radiometric assay; assay type: biochemical; conditions: for inhibition at 10 µM: read-out: % inhibition at 10 uM: TRKC, Fig 6C median ± standard deviation (n = 2)
T14 construct: purchased Reaction Biology (HotSpot contract assay)

FGR = target: T15, FGR (Homo sapiens, UniProt P09769); assay: HotSpot in vitro kinase radiometric assay; assay type: biochemical; conditions: for inhibition at 10 µM: read-out: % inhibition at 10 uM: FGR, Fig 6C median ± standard deviation (n = 2)
T15 construct: purchased Reaction Biology (HotSpot contract assay)

[8] = Fig 6C median ± standard deviation (n = 2)

T7 sequence (P06241 whole entry): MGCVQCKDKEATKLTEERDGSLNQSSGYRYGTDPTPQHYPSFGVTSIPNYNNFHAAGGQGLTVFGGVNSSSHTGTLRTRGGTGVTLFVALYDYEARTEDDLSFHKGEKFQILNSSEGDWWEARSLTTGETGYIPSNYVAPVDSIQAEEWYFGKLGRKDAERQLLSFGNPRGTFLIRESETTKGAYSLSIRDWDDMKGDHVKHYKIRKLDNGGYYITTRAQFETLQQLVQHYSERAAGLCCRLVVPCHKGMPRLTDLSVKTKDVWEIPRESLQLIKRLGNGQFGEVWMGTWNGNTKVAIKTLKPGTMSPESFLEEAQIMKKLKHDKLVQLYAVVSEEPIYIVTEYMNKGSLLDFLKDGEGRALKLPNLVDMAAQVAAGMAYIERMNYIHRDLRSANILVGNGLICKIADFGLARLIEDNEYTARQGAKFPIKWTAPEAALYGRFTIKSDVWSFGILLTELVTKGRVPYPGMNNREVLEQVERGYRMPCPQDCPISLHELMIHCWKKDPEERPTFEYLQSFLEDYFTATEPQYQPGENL
T8 sequence (P06241 whole entry): as above
T9 sequence (Q9H792 whole entry): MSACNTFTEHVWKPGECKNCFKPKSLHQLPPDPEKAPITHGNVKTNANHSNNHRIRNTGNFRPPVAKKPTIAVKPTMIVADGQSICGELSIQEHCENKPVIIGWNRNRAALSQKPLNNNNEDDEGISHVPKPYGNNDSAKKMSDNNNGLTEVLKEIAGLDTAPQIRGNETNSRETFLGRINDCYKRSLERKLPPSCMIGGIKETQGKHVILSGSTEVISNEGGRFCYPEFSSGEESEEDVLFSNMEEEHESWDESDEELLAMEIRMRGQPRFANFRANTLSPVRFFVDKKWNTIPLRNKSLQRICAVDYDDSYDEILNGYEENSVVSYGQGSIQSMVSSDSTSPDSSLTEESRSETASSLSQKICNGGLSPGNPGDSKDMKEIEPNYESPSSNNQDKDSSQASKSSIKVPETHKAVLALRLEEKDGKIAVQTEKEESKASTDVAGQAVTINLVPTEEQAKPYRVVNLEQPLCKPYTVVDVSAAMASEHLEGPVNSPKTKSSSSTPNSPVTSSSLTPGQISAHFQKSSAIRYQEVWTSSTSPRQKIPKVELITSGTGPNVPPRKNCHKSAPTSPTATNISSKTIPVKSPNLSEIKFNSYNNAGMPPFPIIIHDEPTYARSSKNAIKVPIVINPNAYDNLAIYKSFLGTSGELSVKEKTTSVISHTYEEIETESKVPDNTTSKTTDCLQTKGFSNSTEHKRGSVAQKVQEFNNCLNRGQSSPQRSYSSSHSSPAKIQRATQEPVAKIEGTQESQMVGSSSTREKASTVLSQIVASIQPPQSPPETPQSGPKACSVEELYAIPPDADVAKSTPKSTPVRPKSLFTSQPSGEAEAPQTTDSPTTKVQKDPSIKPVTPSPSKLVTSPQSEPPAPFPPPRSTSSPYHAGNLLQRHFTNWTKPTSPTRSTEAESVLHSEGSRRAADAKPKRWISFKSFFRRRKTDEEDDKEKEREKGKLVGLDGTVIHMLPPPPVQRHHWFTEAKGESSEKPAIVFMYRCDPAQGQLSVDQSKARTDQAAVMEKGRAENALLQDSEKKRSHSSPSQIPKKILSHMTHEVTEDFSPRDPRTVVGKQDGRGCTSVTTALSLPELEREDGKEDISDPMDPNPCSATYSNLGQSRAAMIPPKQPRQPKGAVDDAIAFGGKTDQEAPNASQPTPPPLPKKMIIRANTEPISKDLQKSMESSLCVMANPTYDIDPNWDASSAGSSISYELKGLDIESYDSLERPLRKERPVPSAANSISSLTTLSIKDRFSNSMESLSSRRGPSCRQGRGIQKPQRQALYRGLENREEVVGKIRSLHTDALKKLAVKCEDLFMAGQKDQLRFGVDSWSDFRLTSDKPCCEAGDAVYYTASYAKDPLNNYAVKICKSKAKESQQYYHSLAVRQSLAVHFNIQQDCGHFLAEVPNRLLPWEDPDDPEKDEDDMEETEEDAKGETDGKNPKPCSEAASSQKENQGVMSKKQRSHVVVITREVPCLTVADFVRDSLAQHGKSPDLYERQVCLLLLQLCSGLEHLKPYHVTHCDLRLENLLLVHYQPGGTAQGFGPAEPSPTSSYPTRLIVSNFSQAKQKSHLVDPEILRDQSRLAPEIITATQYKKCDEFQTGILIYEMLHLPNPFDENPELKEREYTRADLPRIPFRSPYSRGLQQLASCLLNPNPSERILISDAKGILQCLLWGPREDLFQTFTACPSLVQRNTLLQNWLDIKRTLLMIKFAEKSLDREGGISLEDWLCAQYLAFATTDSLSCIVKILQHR
T15 sequence (P09769 whole entry): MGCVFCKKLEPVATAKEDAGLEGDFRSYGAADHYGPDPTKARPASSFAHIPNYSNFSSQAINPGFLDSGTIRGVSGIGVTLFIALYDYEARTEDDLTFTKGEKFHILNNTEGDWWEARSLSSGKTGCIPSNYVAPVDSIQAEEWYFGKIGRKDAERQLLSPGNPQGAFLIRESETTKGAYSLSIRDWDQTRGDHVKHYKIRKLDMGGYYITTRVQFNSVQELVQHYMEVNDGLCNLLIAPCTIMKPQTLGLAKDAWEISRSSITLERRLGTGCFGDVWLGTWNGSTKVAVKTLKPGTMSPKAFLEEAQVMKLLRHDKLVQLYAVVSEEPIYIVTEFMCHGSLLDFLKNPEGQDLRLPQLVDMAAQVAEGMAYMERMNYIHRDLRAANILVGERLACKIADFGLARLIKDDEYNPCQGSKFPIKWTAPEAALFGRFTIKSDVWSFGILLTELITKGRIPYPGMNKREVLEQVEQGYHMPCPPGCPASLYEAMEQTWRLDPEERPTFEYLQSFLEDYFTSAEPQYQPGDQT
T2 sequence (Q15759 whole entry): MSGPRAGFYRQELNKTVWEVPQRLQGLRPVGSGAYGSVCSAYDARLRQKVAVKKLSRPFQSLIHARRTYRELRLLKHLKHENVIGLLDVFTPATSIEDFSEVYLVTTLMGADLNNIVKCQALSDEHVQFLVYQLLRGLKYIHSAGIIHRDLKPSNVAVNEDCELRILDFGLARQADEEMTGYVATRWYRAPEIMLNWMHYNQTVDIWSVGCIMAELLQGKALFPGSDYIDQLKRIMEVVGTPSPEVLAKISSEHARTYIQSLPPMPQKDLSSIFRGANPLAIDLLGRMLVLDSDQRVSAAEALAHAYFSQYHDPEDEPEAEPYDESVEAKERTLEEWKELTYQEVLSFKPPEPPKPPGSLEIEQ
T14 sequence (Q16288 32-839): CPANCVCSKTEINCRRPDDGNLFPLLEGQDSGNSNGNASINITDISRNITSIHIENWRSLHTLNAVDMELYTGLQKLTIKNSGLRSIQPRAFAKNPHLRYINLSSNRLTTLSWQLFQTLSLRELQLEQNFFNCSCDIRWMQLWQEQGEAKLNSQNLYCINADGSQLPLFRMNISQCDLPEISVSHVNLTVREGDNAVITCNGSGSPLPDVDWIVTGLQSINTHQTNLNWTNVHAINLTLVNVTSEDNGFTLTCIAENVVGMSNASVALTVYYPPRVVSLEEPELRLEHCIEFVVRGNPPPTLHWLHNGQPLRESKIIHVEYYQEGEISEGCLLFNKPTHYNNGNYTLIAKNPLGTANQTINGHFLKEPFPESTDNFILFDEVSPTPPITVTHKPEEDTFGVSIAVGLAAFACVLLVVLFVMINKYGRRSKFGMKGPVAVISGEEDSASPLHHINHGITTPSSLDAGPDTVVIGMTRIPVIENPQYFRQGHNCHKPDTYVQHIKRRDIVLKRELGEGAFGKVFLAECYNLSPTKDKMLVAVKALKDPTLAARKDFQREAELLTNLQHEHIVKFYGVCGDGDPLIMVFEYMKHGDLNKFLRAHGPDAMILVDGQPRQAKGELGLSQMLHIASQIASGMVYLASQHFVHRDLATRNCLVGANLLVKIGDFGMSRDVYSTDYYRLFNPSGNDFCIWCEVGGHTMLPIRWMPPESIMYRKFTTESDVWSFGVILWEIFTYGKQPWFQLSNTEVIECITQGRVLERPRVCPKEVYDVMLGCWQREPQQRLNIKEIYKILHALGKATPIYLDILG
T11 sequence (P07947 whole entry): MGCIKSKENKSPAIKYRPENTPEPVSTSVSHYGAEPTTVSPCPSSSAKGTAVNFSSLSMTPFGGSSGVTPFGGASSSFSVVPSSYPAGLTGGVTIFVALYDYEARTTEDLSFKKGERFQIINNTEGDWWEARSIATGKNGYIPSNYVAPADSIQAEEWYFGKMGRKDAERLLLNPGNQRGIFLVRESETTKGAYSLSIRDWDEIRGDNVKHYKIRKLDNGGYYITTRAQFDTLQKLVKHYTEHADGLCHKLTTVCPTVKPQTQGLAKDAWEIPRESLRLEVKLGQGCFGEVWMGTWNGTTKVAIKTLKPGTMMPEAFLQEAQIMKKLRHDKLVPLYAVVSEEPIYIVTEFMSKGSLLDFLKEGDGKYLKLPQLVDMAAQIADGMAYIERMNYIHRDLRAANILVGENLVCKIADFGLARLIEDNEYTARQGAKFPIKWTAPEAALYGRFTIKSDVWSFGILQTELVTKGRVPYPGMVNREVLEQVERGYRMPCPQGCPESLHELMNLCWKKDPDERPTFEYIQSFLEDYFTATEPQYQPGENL

SMILES | remaining activity at 10 µM (382 unique human kinases [1]) [%] | remaining activity at 10 µM (382 unique human kinases [2]) [%] | remaining activity at 10 µM (382 unique human kinases [3]) [%] | remaining activity at 10 µM (382 unique human kinases [4]) [%] | remaining activity at 10 µM (382 unique human kinases [5]) [%] | remaining activity at 10 µM (382 unique human kinases [6]) [%] | inhibition at 10 µM (FYN) [%] | inhibition at 10 µM (PEAK1; [8]) [%] | inhibition at 10 µM (LCK) [%] | inhibition at 10 µM (YES/YES1) [%] | inhibition at 10 µM (TRKA) [%] | inhibition at 10 µM (PASK) [%] | pActivity, HSP90AA1 (HSP90AA1) | inhibition at 10 µM (TRKC) [%] | inhibition at 10 µM (FGR) [%] | other results
CC(C)c1cc(-c2n[nH]c(=O)n2-c2ccc3c(ccn3C)c2)c(O)cc1O [Ganetespib (STA9090)] | 73.7 | 108 | 85.5 | 77 | – | – | – | – | – | – | – | – | – | – | – | –
CC(C)c1cc(-c2n[nH]c(=O)n2-c2ccc3c(ccn3C)c2)c(O)cc1O [Ganetespib] | – | – | – | – | 20 | 95.1 | – | – | – | – | – | – | – | – | – | remaining activity at 1 µM (382 unique human kinases [7]; compound 1 uM, read-out: % Enzyme Activity (relative to DMSO controls)): 47.6%
CCNC(=O)c1noc(-c2cc(C(C)C)c(O)cc2O)c1-c1ccc(CN2CCOCC2)cc1 [Luminespib (AUY-922)] | 104 | 86.3 | 82.3 | 86.5 | – | – | – | – | – | – | – | – | – | – | – | % Enzyme Activity (relative to DMSO controls) (382 unique human kinases [1]): 100.00%; % Enzyme Activity (relative to DMSO controls) (382 unique human kinases [2]): 82.81%; % Enzyme Activity (relative to DMSO controls) (382 unique human kinases [3]): 81.47%; % Enzyme Activity (relative to DMSO controls) (382 unique human kinases [4]): 85.80%
CCNC(=O)c1noc(-c2cc(C(C)C)c(O)cc2O)c1-c1ccc(CN2CCOCC2)cc1 [Luminespib] | – | – | – | – | 93.3 | 95.4 | 35 | > 70 | 40 ± 2 | 49 ± 2 | -1 | 1 | 8.01 | 4 ± 2 | 66 ± 1 | % inhibition at 10 uM: PEAK1 (PEAK1; 10 μM, Fig 6C median ± standard deviation (n = 2)): 70 ± 1%; % Enzyme Activity (relative to DMSO controls) (382 unique human kinases [5]): 91.42%; % Enzyme Activity (relative to DMSO controls) (382 unique human kinases [6]): 95.18%; % Enzyme Activity (relative to DMSO controls) (382 unique human kinases [7]; compound 10 uM): 65.29%; remaining activity at 10 µM (382 unique human kinases [7]; compound 10 uM, read-out: % Enzyme Activity (relative to DMSO controls)): 65.6%
CCNC(=O)c1noc(-c2cc(Cl)c(O)cc2O)c1-c1ccc(OC)cc1 [VER-50589] | – | – | – | – | – | – | -13 ± 5 | -5 ± 1 | -6 ± 6 | 1 ± 4 | 2 ± 2 | -6 ± 5 | 7.55 | 10 ± 5 | -7 ± 4 | % Enzyme Activity (relative to DMSO controls) (FYN; FYN, 10uM, ATP 30 uM, Data 1, Data 2): 116.15%; remaining activity at 10 µM (FYN; FYN, 10uM, ATP 30 uM, Data 1, Data 2, read-out: % Enzyme Activity (relative to DMSO controls)): 109%; % Enzyme Activity (relative to DMSO controls) (PEAK1; PEAK1, 10uM, ATP 30 uM, Data 1, Data 2): 104.61%; remaining activity at 10 µM (PEAK1; PEAK1, 10uM, ATP 30 uM, Data 1, Data 2, read-out: % Enzyme Activity (relative to DMSO controls)): 105%; % Enzyme Activity (relative to DMSO controls) (LCK; LCK, 10uM, ATP 15 uM, Data 1, Data 2): 102.22%; remaining activity at 10 µM (LCK; LCK, 10uM, ATP 15 uM, Data 1, Data 2, read-out: % Enzyme Activity (relative to DMSO controls)): 111%; % Enzyme Activity (relative to DMSO controls) (YES/YES1; YES/YES1, 10uM, ATP 50 uM, Data 1, Data 2): 96.18%; remaining activity at 10 µM (YES/YES1; YES/YES1, 10uM, ATP 50 uM, Data 1, Data 2, read-out: % Enzyme Activity (relative to DMSO controls)): 102%; % Enzyme Activity (relative to DMSO controls) (TRKA; TRKA, 10uM, ATP 100 uM, Data 1, Data 2): 96.8%; remaining activity at 10 µM (TRKA; TRKA, 10uM, ATP 100 uM, Data 1, Data 2, read-out: % Enzyme Activity (relative to DMSO controls)): 100%; % Enzyme Activity (relative to DMSO controls) (PASK; PASK, 10uM, ATP 50 uM, Data 1, Data 2): 102.75%; remaining activity at 10 µM (PASK; PASK, 10uM, ATP 50 uM, Data 1, Data 2, read-out: % Enzyme Activity (relative to DMSO controls)): 109%; IC50 (HSP90AA1; Fig 6C, IC50 against HSP90 shown for comparison, source not given): 21 nM; % Enzyme Activity (relative to DMSO controls) (TRKC; TRKC, 10uM, ATP 100 uM, Data 1, Data 2): 86.46%; remaining activity at 10 µM (TRKC; TRKC, 10uM, ATP 100 uM, Data 1, Data 2, read-out: % Enzyme Activity (relative to DMSO controls)): 94.2%; % Enzyme Activity (relative to DMSO controls) (FGR; FGR, 10uM, ATP 50 uM, Data 1, Data 2): 109.55%; remaining activity at 10 µM (FGR; FGR, 10uM, ATP 50 uM, Data 1, Data 2, read-out: % Enzyme Activity (relative to DMSO controls)): 104%

Source: article PMC8550792, “Evolution of kinase polypharmacology across HSP90 drug discovery” (Cell Chemical Biology, 2021)
